# Source: patent US20240390464A1, “Treatment of Adults With Overweight or Obesity With or Without Weight-Related Comorbidities” (Carmot Therapeutics Inc., priority 2023, published 2024)
# Numbered stars: 1 amine (or outer) side, 2 acyl side, 3 side chain; on linkers, the order of the positions; unused ones are H or OH. Square brackets hold non-standard residues; d marks the D form. Side chains are listed from the residue outwards. Peptide text beside a SMILES is read from it. * marks the point of attachment. Isobutyryl(2-(3-CN-5-F-Ph)) = CC(C)(C(=O)*)c1cc(F)cc(C#N)c1; C20 diacid = O=C(O)CCCCCCCCCCCCCCCCCCC(=O)*; γGlu = O=C(O)[C@H](CCC(=O)[*:2])N[*:1]; AEEA = NCCOCCOCC(=O)O; Aib = CC(C)(N)C(=O)O; βAla = NCCC(=O)O
# Test: Phase 1 SAD Cohorts 1-5: safety and tolerability (adverse events)
# Assay type: in vivo, human
# Conditions: for AE: Abdominal bloating / AE: Abdominal cramp / AE: Abdominal cramp with loose bowel / AE: Abdominal pain / AE: Abnormal LFTs / AE: Constipation / AE: Diarrhea / AE: Dyspepsia / AE: Dysphasia / AE: Early satiety / AE: Emesis / AE: Exacerbated GERD / AE: Fatigue / AE: Headache / AE: Indigestion / AE: Lethargy / AE: Loose bowel motion / AE: Loose stools / AE: Loss of Appetite / AE: Microscopic hematuria / AE: Nausea / AE: Reduced appetite / AE: Reduced bowel motion / AE: Reflux / AE: Throat discomfort / AE: Vomiting / Life-threatening TEAE / Moderate TEAEs / Related TEAEs / Serious TEAEs / Severe TEAEs / TEAE leading to death / TEAEs: N = 8, blinded
# From the text: This Example outlines the protocol for a Phase 1 randomized, double-blind, placebo-controlled study to evaluate the safety, tolerability, pharmacokinetics, and pharmacodynamics of CT-388 in otherwise healthy overweight and obese adult participants and in obese patients with type 2 diabetes mellitus.
# The primary objective of this study is to determine the safety and tolerability of CT-388 in otherwise healthy overweight and obese adult participants when administered as a single dose of 0.5, 2.0, 5.0, 6.0, or 7.5 mg.
# Safety and tolerability will be assessed by monitoring adverse events (AE) including local injection-site reactions, measuring vital signs and ECGs, and performing clinical laboratory blood and urine analyses.
# • Cohort 1: One dose containing 0.5 mg of CT-388 or matched placebo administered subcutaneously in the abdomen • Cohort 2: One dose containing 2.0 mg of CT-388 or matched placebo administered subcutaneously in the abdomen • Cohort 3: One dose containing 5.0 mg of CT-388 or matched placebo administered subcutaneously in the abdomen • Cohort 4: One dose containing 7.5 mg of CT-388 or matched placebo administered subcutaneously in the abdomen • Cohort 5: One dose containing 6.0 mg of CT-388 or matched placebo administered subcutaneously in the abdomen
# A Phase 1, randomized, placebo-controlled, double-blind study was conducted where single ascending doses (SAD; n=40; 0.5-7.5 mg) and multiple ascending doses (MAD; n=24; 5-12 mg via titration in 3 cohorts) were administered as described in Example 1 to overweight/obese adults.
# [1] = Cohort 1, 0.5 mg/Placebo single SC dose
# [2] = Cohort 2, 2 mg/Placebo single SC dose
# [3] = Cohort 3, 5 mg/Placebo single SC dose
# [4] = Cohort 4, 7.5 mg/Placebo single SC dose
# [5] = Cohort 5, 6 mg/Placebo single SC dose
smiles,measurement,setting,value
CC[C@H](C)[C@H](NC(=O)[C@H](CC(C)C)NC(=O)[C@H](Cc1c[nH]c2ccccc12)NC(=O)[C@H](CCC(N)=O)NC(=O)[C@@H](NC(=O)[C@H](Cc1ccccc1)NC(=O)[C@H](C)NC(=O)[C@H](CCCCNC(=O)COCCOCCNC(=O)COCCOCCNC(=O)CC[C@H](NC(=O)CCCCCCCCCCCCCCCCCCC(=O)O)C(=O)O)NC(=O)[C@H](CCC(N)=O)NC(=O)[C@H](C)NC(=O)[C@@H](NC(=O)[C@H](CCCCN)NC(=O)[C@H](CC(=O)O)NC(=O)[C@H](CC(C)C)NC(=O)C(C)(C)NC(=O)[C@@H](NC(=O)[C@H](CO)NC(=O)[C@H](Cc1ccc(O)cc1)NC(=O)[C@H](CC(=O)O)NC(=O)[C@H](CO)NC(=O)[C@@H](NC(=O)[C@H](Cc1ccccc1)NC(=O)[C@@H](NC(=O)CNC(=O)[C@H](CCC(=O)O)NC(=O)CCNC(=O)C(C)(C)c1cc(F)cc(C#N)c1)[C@@H](C)O)[C@@H](C)O)[C@@H](C)CC)[C@@H](C)CC)C(C)C)C(=O)N[C@@H](C)C(=O)NCC(=O)NCC(=O)N1CCC[C@H]1C(=O)N[C@@H](CO)C(=O)N[C@@H](CO)C(=O)NCC(=O)N[C@@H](C)C(=O)N1CCC[C@H]1C(=O)N1CCC[C@H]1C(=O)N1CCC[C@H]1C(=O)N[C@@H](CO)C(N)=O [CT-388] ({Isobutyryl(2-(3-CN-5-F-Ph))-βAla}-EGTFTSDYSI[Aib]LDKIAQK([AEEA-AEEA-γGlu-C20 diacid])AFVQWLIAGGPSSGAPPPS-NH2),AE: Abdominal bloating,[1],0
same,AE: Abdominal cramp,[1],0
same,AE: Abdominal cramp with loose bowel,[1],0
same,AE: Abdominal pain,[1],0
same,AE: Abnormal LFTs,[1],0
same,AE: Constipation,[1],0
same,AE: Diarrhea,[1],0
same,AE: Dyspepsia,[1],0
same,AE: Dysphasia,[1],0
same,AE: Early satiety,[1],0
same,AE: Emesis,[1],0
same,AE: Exacerbated GERD,[1],0
same,AE: Fatigue,[1],0
same,AE: Headache,[1],0
same,AE: Indigestion,[1],0
same,AE: Lethargy,[1],0
same,AE: Loose bowel motion,[1],0
same,AE: Loose stools,[1],0
same,AE: Loss of Appetite,[1],0
same,AE: Microscopic hematuria,[1],0
same,AE: Nausea,[1],0
same,AE: Reduced appetite,[1],0
same,AE: Reduced bowel motion,[1],0
same,AE: Reflux,[1],0
same,AE: Throat discomfort,[1],0
same,AE: Vomiting,[1],0
same,Life-threatening TEAE,[1],0
same,Moderate TEAEs,[1],0
same,Related TEAEs,[1],0
same,Serious TEAEs,[1],0
same,Severe TEAEs,[1],0
same,TEAE leading to death,[1],0
same,TEAEs,[1],8
same,AE: Abdominal bloating,[2],0
same,AE: Abdominal cramp,[2],0
same,AE: Abdominal cramp with loose bowel,[2],2 (25.0%)
same,AE: Abdominal pain,[2],0
same,AE: Abnormal LFTs,[2],0
same,AE: Constipation,[2],2 (25.0%)
same,AE: Diarrhea,[2],0
same,AE: Dyspepsia,[2],0
same,AE: Dysphasia,[2],0
same,AE: Early satiety,[2],1 (12.5%)
same,AE: Emesis,[2],0
same,AE: Exacerbated GERD,[2],0
same,AE: Fatigue,[2],2 (25.0%)
same,AE: Headache,[2],1 (12.5%)
same,AE: Indigestion,[2],0
same,AE: Lethargy,[2],1 (12.5%)
same,AE: Loose bowel motion,[2],0
same,AE: Loose stools,[2],0
same,AE: Loss of Appetite,[2],2 (25.0%)
same,AE: Microscopic hematuria,[2],0
same,AE: Nausea,[2],0
same,AE: Reduced appetite,[2],0
same,AE: Reduced bowel motion,[2],0
same,AE: Reflux,[2],0
same,AE: Throat discomfort,[2],0
same,AE: Vomiting,[2],0
same,Life-threatening TEAE,[2],0
same,Moderate TEAEs,[2],1
same,Related TEAEs,[2],6
same,Serious TEAEs,[2],0
same,Severe TEAEs,[2],0
same,TEAE leading to death,[2],0
same,TEAEs,[2],8
same,AE: Abdominal bloating,[3],0
same,AE: Abdominal cramp,[3],0
same,AE: Abdominal cramp with loose bowel,[3],0
same,AE: Abdominal pain,[3],0
same,AE: Abnormal LFTs,[3],0
same,AE: Constipation,[3],0
same,AE: Diarrhea,[3],0
same,AE: Dyspepsia,[3],1 (12.5%)
same,AE: Dysphasia,[3],1 (12.5%)
same,AE: Early satiety,[3],0
same,AE: Emesis,[3],2 (25.0%)
same,AE: Exacerbated GERD,[3],0
same,AE: Fatigue,[3],0
same,AE: Headache,[3],0
same,AE: Indigestion,[3],1 (12.5%)
same,AE: Lethargy,[3],0
same,AE: Loose bowel motion,[3],0
same,AE: Loose stools,[3],0
same,AE: Loss of Appetite,[3],1 (12.5%)
same,AE: Microscopic hematuria,[3],1 (12.5%)
same,AE: Nausea,[3],0
same,AE: Reduced appetite,[3],0
same,AE: Reduced bowel motion,[3],0
same,AE: Reflux,[3],0
same,AE: Throat discomfort,[3],0
same,AE: Vomiting,[3],0
same,Life-threatening TEAE,[3],0
same,Moderate TEAEs,[3],0
same,Related TEAEs,[3],4
same,Serious TEAEs,[3],0
same,Severe TEAEs,[3],0
same,TEAE leading to death,[3],0
same,TEAEs,[3],6
same,AE: Abdominal bloating,[4],1 (12.5%)
same,AE: Abdominal cramp,[4],1 (12.5%)
same,AE: Abdominal cramp with loose bowel,[4],0
same,AE: Abdominal pain,[4],0
same,AE: Abnormal LFTs,[4],1 (12.5%)
same,AE: Constipation,[4],0
same,AE: Diarrhea,[4],2 (25.0%)
same,AE: Dyspepsia,[4],0
same,AE: Dysphasia,[4],0
same,AE: Early satiety,[4],0
same,AE: Emesis,[4],0
same,AE: Exacerbated GERD,[4],1 (12.5%)
same,AE: Fatigue,[4],0
same,AE: Headache,[4],2 (25.0%)
same,AE: Indigestion,[4],0
same,AE: Lethargy,[4],0
same,AE: Loose bowel motion,[4],0
same,AE: Loose stools,[4],1 (12.5%)
same,AE: Loss of Appetite,[4],1 (12.5%)
same,AE: Microscopic hematuria,[4],0
same,AE: Nausea,[4],6 (75.0%)
same,AE: Reduced appetite,[4],2 (25.0%)
same,AE: Reduced bowel motion,[4],1 (12.5%)
same,AE: Reflux,[4],2 (25.0%)
same,AE: Throat discomfort,[4],1 (12.5%)
same,AE: Vomiting,[4],3 (37.5%)
same,Life-threatening TEAE,[4],0
same,Moderate TEAEs,[4],5
same,Related TEAEs,[4],7
same,Serious TEAEs,[4],1
same,Severe TEAEs,[4],1
same,TEAE leading to death,[4],0
same,TEAEs,[4],8
same,AE: Abdominal bloating,[5],0
same,AE: Abdominal cramp,[5],0
same,AE: Abdominal cramp with loose bowel,[5],0
same,AE: Abdominal pain,[5],1 (12.5%)
same,AE: Abnormal LFTs,[5],0
same,AE: Constipation,[5],1 (12.5%)
same,AE: Diarrhea,[5],0
same,AE: Dyspepsia,[5],0
same,AE: Dysphasia,[5],0
same,AE: Early satiety,[5],0
same,AE: Emesis,[5],0
same,AE: Exacerbated GERD,[5],0
same,AE: Fatigue,[5],0
same,AE: Headache,[5],1 (12.5%)
same,AE: Indigestion,[5],0
same,AE: Lethargy,[5],0
same,AE: Loose bowel motion,[5],1 (12.5%)
same,AE: Loose stools,[5],0
same,AE: Loss of Appetite,[5],1 (12.5%)
same,AE: Microscopic hematuria,[5],0
same,AE: Nausea,[5],2 (25.0%)
same,AE: Reduced appetite,[5],1 (12.5%)
same,AE: Reduced bowel motion,[5],0
same,AE: Reflux,[5],0
same,AE: Throat discomfort,[5],0
same,AE: Vomiting,[5],2 (25.0%)
same,Life-threatening TEAE,[5],0
same,Moderate TEAEs,[5],2
same,Related TEAEs,[5],4
same,Serious TEAEs,[5],1
same,Severe TEAEs,[5],1
same,TEAE leading to death,[5],0
same,TEAEs,[5],6
same,safety and tolerability,"SAD Cohorts 1-5, single SC dose 0.5-7.5 mg, preliminary and blinded data",generally well-tolerated
